Measurements published in ChEMBL document CHEMBL1201862, “PubChem BioAssay data set” (2004).
Calls of active or inactive are those of the source.

Tests used:
[1] = biological target: Protein Rev (Human immunodeficiency virus type 1 group M subtype B (isolate HXB2)(HIV-1), UniProt P04618); assay: blockers of HIV Rev/RRE RNA complex – biochemical, fluorescence polarization, HIV-1, dose response (AID 434976); design: species or system Human immunodeficiency virus 1
[2] = biological target: T1, Sentrin-specific protease 7 (Homo sapiens, UniProt Q9BQF6); assay: inhibition of human SENP7 cleavage activity – biochemical, luminescence, SAR follow-up (AID 504497); type: functional
T1 sequence (Q9BQF6 whole entry): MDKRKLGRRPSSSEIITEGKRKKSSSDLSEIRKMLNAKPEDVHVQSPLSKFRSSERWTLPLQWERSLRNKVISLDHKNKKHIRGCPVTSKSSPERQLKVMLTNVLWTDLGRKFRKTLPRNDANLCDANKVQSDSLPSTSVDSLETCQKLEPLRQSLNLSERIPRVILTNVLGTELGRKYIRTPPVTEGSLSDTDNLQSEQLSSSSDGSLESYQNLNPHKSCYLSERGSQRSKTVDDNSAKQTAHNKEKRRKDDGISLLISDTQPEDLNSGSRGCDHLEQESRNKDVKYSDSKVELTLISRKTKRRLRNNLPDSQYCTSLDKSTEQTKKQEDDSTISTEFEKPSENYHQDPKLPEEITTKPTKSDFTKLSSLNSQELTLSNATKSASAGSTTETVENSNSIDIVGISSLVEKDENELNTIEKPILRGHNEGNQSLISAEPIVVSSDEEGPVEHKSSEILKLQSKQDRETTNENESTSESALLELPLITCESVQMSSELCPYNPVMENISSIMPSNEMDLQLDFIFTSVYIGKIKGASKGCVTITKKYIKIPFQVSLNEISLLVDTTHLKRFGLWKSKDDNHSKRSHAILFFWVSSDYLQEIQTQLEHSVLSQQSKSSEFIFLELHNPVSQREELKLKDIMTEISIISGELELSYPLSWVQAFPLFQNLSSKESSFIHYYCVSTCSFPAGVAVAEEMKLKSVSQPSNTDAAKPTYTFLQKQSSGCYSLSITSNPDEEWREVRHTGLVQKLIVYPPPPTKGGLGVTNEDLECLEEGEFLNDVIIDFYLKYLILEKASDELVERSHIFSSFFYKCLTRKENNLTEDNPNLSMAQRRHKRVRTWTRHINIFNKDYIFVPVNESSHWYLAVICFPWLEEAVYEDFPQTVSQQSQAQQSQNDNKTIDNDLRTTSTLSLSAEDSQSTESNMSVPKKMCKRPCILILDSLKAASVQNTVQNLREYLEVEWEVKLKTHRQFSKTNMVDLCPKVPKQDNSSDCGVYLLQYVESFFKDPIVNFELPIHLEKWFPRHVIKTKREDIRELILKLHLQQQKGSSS

[3] = biological target: T2, Sentrin-specific protease 6 (Homo sapiens, UniProt Q9GZR1); assay: SAR Analysis of small molecule inhibitors of Sentrin-specific protease 6 (SENP6) using a Luminescent assay. [Related pubchem assays (depositor defined):AID2582, AID2599]; type: functional
T2 sequence (Q9GZR1 whole entry): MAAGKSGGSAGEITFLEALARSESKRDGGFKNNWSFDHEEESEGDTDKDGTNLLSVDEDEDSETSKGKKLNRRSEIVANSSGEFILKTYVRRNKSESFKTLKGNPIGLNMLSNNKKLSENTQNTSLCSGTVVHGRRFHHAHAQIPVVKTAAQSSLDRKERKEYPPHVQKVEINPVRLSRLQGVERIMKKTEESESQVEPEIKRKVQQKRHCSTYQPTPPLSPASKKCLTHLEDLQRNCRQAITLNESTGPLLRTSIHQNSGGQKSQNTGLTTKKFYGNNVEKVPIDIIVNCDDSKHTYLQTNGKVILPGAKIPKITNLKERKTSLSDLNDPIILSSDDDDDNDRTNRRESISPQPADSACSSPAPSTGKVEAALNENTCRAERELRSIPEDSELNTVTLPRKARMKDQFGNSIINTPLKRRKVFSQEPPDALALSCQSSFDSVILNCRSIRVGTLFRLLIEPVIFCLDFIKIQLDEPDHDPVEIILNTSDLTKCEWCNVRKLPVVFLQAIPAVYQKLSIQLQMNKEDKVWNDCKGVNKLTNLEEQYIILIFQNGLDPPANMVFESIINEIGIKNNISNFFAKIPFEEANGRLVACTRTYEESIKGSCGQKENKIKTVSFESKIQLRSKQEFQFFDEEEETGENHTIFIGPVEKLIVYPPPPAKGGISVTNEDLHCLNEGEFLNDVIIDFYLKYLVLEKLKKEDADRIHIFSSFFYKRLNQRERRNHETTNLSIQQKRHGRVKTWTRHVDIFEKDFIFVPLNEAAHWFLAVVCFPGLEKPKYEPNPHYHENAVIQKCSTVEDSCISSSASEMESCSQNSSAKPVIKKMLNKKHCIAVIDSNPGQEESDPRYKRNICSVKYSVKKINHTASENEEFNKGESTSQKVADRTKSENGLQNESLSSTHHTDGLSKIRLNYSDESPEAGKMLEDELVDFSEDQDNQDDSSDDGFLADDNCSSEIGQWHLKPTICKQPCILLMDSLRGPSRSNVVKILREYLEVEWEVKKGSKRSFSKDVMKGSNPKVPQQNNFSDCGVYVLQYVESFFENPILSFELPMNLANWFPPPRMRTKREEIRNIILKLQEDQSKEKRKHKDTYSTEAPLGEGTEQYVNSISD

[4] = test system: INS1; assay: INS-1E survival protection against cytokine death – cell-based, luminescence, retest, dose response (AID 449756); type: functional; settings: Rattus norvegicus;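 further: cell death triggered by IL-1 beta plus TNF-alpha plus IFN-gamma mixture; protective hits raise ATP signal compared with cytokine alone wells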
[5] = Luminescence-based dose response cell-based high throughput screening assay for cytotoxic compounds using the IEC-6 intestinal epithelial cell line. [Related pubchem assays: 1858 (Summary AID.), 1825 (Counterscreen.), 1907 (Confirmation screen.)]; type: functional
[6] = test system: BJ; assay: growth inhibition of engineered Ras-driven BJ cells – cell-based, alamar blue fluorescence, cherrypicked samples, dose response (AID 2631); type: functional; settings: Homo sapiens;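 further: confirmatory dose-response assay in RAS-dependent BJ fibroblasts engineered with TERT, LT and ST, with cytotoxicity read by fluorescence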

Protein Rev, sequence (P04618 whole entry): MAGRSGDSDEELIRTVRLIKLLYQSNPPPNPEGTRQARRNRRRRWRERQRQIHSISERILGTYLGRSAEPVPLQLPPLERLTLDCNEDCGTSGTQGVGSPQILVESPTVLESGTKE

SMILES | IC50 [1] | IC50 [2] | IC50 [3] | AC50 [4] | IC50 [5] | EC50 [6]
Oc1ccc(/C=N/Nc2cc(N3CCCC3)nc(N3CCCC3)n2)cc1 | 1360 nM (active) | > 99000 nM (inactive) | 18100 nM (active) |  |  | 
COc1ccc(S(=O)(=O)/N=C2\C=C(Nc3ccc(O)cc3)C(=O)c3ccccc32)cc1 |  |  |  | 592 nM (active) | 586 nM (active) | 507 nM (inconclusive)
